Measurements from patent publication US20030229922A1, “Materials and methods for the modification of plant cell wall polysaccharides” (GENESIS RESEARCH AND DEVELOPMENT CORPORATION LTD., priority 1998, published 2003).
Where two headings read alike, the source gives them in different places.

What was measured:
[1] = molecular target: T1, Eucalyptus grandis UGP (UDP-glucose pyrophosphorylase), SEQ ID NO: 79 (DNA; protein SEQ ID NO: 103) (Eucalyptus grandis, UniProt B3VDY8); test: UGP enzyme assay (purified recombinant protein); type: biochemical; conditions: E. grandis UGP
T1 construct: wild type
T1 sequence (B3VDY8 entry or part of it): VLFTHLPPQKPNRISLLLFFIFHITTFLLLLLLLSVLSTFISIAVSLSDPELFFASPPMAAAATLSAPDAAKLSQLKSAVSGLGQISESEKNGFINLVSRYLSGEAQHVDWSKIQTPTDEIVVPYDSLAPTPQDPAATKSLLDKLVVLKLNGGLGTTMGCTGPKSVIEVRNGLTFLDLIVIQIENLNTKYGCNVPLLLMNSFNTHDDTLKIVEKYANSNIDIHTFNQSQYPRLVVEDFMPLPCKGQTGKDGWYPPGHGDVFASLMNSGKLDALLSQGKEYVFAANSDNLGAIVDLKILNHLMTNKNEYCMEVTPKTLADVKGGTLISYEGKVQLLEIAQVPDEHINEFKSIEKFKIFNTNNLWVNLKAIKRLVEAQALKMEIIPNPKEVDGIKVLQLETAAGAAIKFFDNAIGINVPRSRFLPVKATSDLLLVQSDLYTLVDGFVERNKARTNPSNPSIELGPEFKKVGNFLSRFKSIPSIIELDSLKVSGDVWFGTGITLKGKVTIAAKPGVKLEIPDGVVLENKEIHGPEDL
From the text: Sense constructs containing sequences including the coding regions for UGP (SEQ ID NO: 79) and SUS (SEQ ID NO: 105) from Eucalyptus grandis, and UGP (SEQ ID NO: 80) from Pinus radiata were inserted into the expression vector pET16b (Clontech Laboratories Inc, Palo Alto, Calif.). The resulting constructs were transformed into E. coli XL1-Blue (Stratagene) and induced to produce recombinant protein by the addition of IPTG. Purified proteins were obtained using Ni^2+ column chromatography (Janknecht et al., Proc. Natl. Acad. Sci. USA, 88:8972-8976, 1991).
Enzyme assays for UGP were performed using published methods (Peng and Chang, FEBS Lett. 329:153-158, 1993).

[2] = test system: S. tuberosum UGP (Nakano et al.); conditions: cited from earlier work
[3] = test system: S. tuberosum UGP (Katsube et al.); conditions: cited from earlier work
[4] = test system: V. radiata SUS (sucrose synthase) (Delmer et al.); conditions: SEM n.a.; cited from earlier work

Nc1ncnc2c1ncn2[C@@H]1O[C@H](COP(=O)(O)OP(=O)(O)OP(=O)(O)O)[C@@H](O)[C@H]1O [ATP]
KM^ATP [1]: no activity | KM^ATP [2]: no activity | KM^ATP [3]: no activity

O=P(O)(O)O[C@H]1O[C@H](CO)[C@@H](O)[C@H](O)[C@H]1O [G1P]
Km ([2]; read-out: KM^G1P, SEM n.a.): 180 µM | Km ([3]; read-out: KM^G1P, SEM n.a.): 130 µM

OC[C@H]1O[C@@](CO)(O[C@H]2O[C@H](CO)[C@@H](O)[C@H](O)[C@H]2O)[C@@H](O)[C@@H]1O [Sucrose]
Km [4]: 16700 µM

O=c1ccn([C@@H]2O[C@H](COP(=O)(O)OP(=O)(O)OP(=O)(O)O)[C@@H](O)[C@H]2O)c(=O)[nH]1 [UTP]
Km ([2]; read-out: KM^UTP, SEM n.a.): 170 µM | Km ([3]; read-out: KM^UTP, SEM n.a.): 76 µM
